Experimental data: a melting point compilation (Tetko et al.; mined from patent text by program, amines drawn as free bases though some values may be those of a salt)

melting point [°C]	SMILES
67 to 69	O=C(CO)c1ccc(Oc2ccccc2)cc1
205 to 206	Cc1ccc(-c2[nH]c(C3CCCCC3)nc2C(=O)O)cc1
151 to 155	CC1(C)SC2C(N)C(=O)N2C1NC(=O)OCC(Cl)(Cl)Cl (configuration not stated)
188 to 192	CCc1nc2c(N)nc3ccccc3c2n1CCCC#Cc1ccccn1
70 to 71	COc1ccc(OC)c(C=CC#N)c1
281 to 283	CN(C)S(=O)(=O)c1cc(-n2c(=O)cc(C(F)(F)F)[nH]c2=O)ccc1Cl
94.5 to 95.5	CN(C=O)c1cc(F)ccc1C(=O)CS(C)(=O)=O
63 to 66	C#Cc1ccc2c(c1)C(=O)CC(C)(C)S2
150 to 157	CC#Cc1cn(C2OC(COC(C)=O)C(OC(C)=O)C2OC(C)=O)c(=O)[nH]c1=O (configuration not stated)
168 to 169	Nc1n[nH]c2cc(C(F)(F)F)ccc12
103 to 104	O=[N+]([O-])c1ccc(O)c(C(F)(F)F)c1
146 to 148	CC(C)(C)c1cc(CCC(=O)NCCNc2ccc(C#N)cc2)cc(C(C)(C)C)c1O
158	COc1cc(OC)nc(-n2nc(C)oc2=O)n1
106 to 110	CC(O[Si](C)(C)C(C)(C)C)C1C(=O)NC1C1CCCC(OCCF)C1O (configuration not stated)
185	O=C(O)CCCSc1ccc(C(=O)O)cn1
98 to 100	N#Cn1c(-c2ccc(Cl)cc2)c([N+](=O)[O-])c(-c2ccc(Cl)c(Cl)c2)c1C(F)(F)F
206 to 208	O=C(Nc1cc2ncc(CN3CCCC3)cc2cc1F)c1ccc(-c2ccccc2)cc1
211 to 214	CCOCc1nc2c(N)nc3cc(-c4cccnc4)ccc3c2n1Cc1ccc(CN)cc1
100 to 101	CCCCc1oc2ccc(CO)cc2c1C1(c2ccc(O)cc2)OCCO1
83 to 85	COc1ccc(C2C(C(=O)/C=C/c3ccc(O)c(OC)c3)C(=O)CC(c3ccc(O)c(OC)c3)C2[N+](=O)[O-])cc1 (configuration not stated)
166 to 167	CSC(=S)N1Cc2[nH]c3ccccc3c2CC1CCO (configuration not stated)
155 to 157	COc1ccccc1CCC1CCCCn2c1nc(-c1ccncn1)cc2=O (racemic)
212 to 214	Cc1[nH]c(=S)n(Nc2ccc(Cl)cc2)c1-c1ccccc1

melting point [°C]	SMILES
33 to 34	CCCCCCCCCCCCCCCCCCC(CC1(C)OCCO1)C(=O)OCC (configuration not stated)
< 50	CCSN(C)C(=O)Nc1ccc(C)c(Cl)c1
190 to 191	CCc1nc2cnc3cc(OCC(=O)N4CCOCC4)ccc3c2n1CCOc1ccccc1
153	NC(=O)C=Cc1cccs1
185 to 186	Cc1ccc(C(=O)NC(NC(=S)Nc2c(F)cccc2F)C(F)(F)F)cc1 (configuration not stated)
218 to 219	Cc1ccc2nc(-n3nc4c(c3O)-c3ccccc3CC4)sc2c1
170 to 172	COC(=O)C1=C(C)NC(C)=C(C(=O)OCC2CCCO2)C1c1ccccc1Br (configuration not stated)
98 to 101	CCCCN(CCCC)S(=O)(=O)NC(=O)Nc1c(C(C)C)cccc1C(C)C
122 to 124	O=CNc1ccccc1Nc1ccc(C(=O)c2ccccc2)cc1
80	Cc1cccc(NC(=S)SCC(=O)C(C)(C)C)n1
222 to 225	Cc1ccc2nc(N)nc(N)c2c1-c1cc(C(F)(F)F)cc(C(F)(F)F)c1
108 to 112	O=C(O)c1ccc(COc2cccc(-c3c(-c4ccccc4)cnc4c(C(F)(F)F)cccc34)c2)cc1
108 to 110	O=C1c2cc(OCc3ccccc3)ccc2OCC1Cn1ccnc1 (configuration not stated)
95 to 97	CS(=O)CC(=O)c1cccn1Cc1ccccc1 (configuration not stated)
85.6	CC(=O)N1c2ccc(-c3ccc(C=O)cc3)cc2C(NC=O)CC1C (configuration not stated)
243 to 244	CS(=O)(=O)c1ccc(C(CC2CCCC2)C(=O)Nc2ncc[nH]2)cc1[N+](=O)[O-] (configuration not stated)
235 to 238	Cc1ccc(C(=O)Nc2nc(=O)c3ccccc3n2C)cc1
140	CCc1cccc(C)c1CNc1cc(C(=O)OC)cn2nc(C)nc12
146 to 147	CCS(=O)c1cc2c(c3c1OC(C)(C)C3)C(c1ccccc1)=NC(C)(C)C2 (configuration not stated)
132 to 134	CCN1CC(NC(=O)c2cc(Cl)c(N)cc2OC)C=N1 (configuration not stated)
89 to 90	CCCCCCOc1ccccc1C(=NCCC(C)(C)C)NC#N
161 to 163	CCOC(=O)c1c(CN2CCOCC2)nc2ccc(Cl)cc2c1-c1ccccc1
220 to 222	O=c1[nH]c2ncc(-c3ccc(F)nc3)nc2n1CC1CCOCC1

melting point [°C]	SMILES
282 to 284	N#Cc1cccc(CN2CCc3sc(Nc4ncc(F)cn4)nc3-c3cn[nH]c32)c1
145 to 149	COc1cc(C(=O)N2Cc3ccc(C(=O)NCc4ccc(OC(F)(F)F)cc4)n3Cc3ccccc32)ccc1-c1ccccc1C
> 250	CCOC(=O)c1cc2cc[nH]c2cc1N
130 to 132	CNc1nc(-c2cccc(NC(=O)c3ccc(OC)c(Cl)c3)c2)c2cc(OC)c(OC)cc2n1
151	Cn1nc(-c2cc(O)c(C#N)cc2F)c(Cl)c1C(F)(F)F
105 to 107	CCCCOc1cc(CO)cc(N)c1Cc1ccccc1
184	CN(C(=O)c1nn(-c2ccc(Cl)cc2Cl)c(-c2ccc(Cl)cc2)c1F)N1CCCCC1
163	Cn1ncnc1COc1nn2c(-c3c(F)cccc3F)nncc2c1-c1ccccc1F
175 to 177	CCOC(=O)c1cccc2c1Nc1ccc(C(=O)c3ccccc3)cc1N2
285 to 290	O=C(O)c1ccc(C(=C2CC3CCC(C2)N3CCc2ccccc2)c2ccccc2)cc1
214 to 216	O=C(Nc1ccc(S(=O)(=O)c2ccccc2)cc1)C1(O)CCCC1
> 260	COc1cc(OC)c(-c2cncnc2)cc1/C=C/C(=O)c1ccc(C(=O)O)cc1
248	CC(=O)N(CCP(=O)(O)O)Cc1cc([N+](=O)[O-])cc2[nH]c(=O)c(=O)[nH]c12
252 to 254	COc1ccc2c(=O)[nH]nc(C)c2c1
240	Nc1nc2cc(Br)ccc2c2c1nc(CNC(=O)C1CC1)n2CC1CCOCC1
> 300	Cc1nc(-c2ccc(C(=O)O)cc2)sc1C(=O)O
200 to 203	N#C/C=C1\CCc2cc(Br)c3c(c21)CCO3
31	CCCCCCCCOc1ccc(-c2cc(F)cc(F)c2F)cc1
81 to 82	CCC(Cl)CCC(=O)c1cc(OC)c(OC)cc1F (configuration not stated)
130 to 132	COC(=O)CCCc1cc2cc(Cl)ccc2n1S(=O)(=O)c1ccc(N2CCOCC2)nc1
170 to 171	Cc1sc(C)c(Cc2nc3c(F)c(F)cc(F)c3s2)c1CC(=O)O
106 to 110	O=C(CN(CCOCc1ccccc1)Cc1ccccc1)Nc1ccc2c3c(nn2CCN(CCOCc2ccccc2)Cc2ccccc2)-c2cc(O)ccc2Oc13

SMILES	melting point [°C]
CN1CC=C(c2cccc3ccc(O)cc23)CC1	182 to 184
CCCc1c(C(=O)C(C)C)c2ccc(CC(=O)OC)cc2n1Cc1cc2c(cc1Cl)OCO2	119 to 120
CC(=O)Nc1ccc(C2CN(C)Cc3c(Cl)cc(Cl)cc32)cc1 (configuration not stated)	205 to 206
O=C(CBr)Nc1ccc(I)cc1	185
